From patent US9969742B2, “Imidazotriazinone compounds” (Ironwood Pharmaceuticals, Inc., priority 2012, dated 2018)
Where two headings read alike, the source gives them in different places.

What was measured:
Format in all cases: biochemical
PDE9A2 = target: T1, PDE9A2 (Homo sapiens, UniProt O76083); experiment: Phosphodiesterase enzyme screening assay, PDE9A2
T1 construct: purchased Reaction Biology Corporation, Malvern, Pa
Procedure, shortened: (§1)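 Compounds were tested on commercial human PDE enzymes using a fluorescent cGMP substrate at 4.0 μM, incubated for one hour at room temperature. Values are means of four wells versus controls.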

PDE1A = target: T2, PDE1A (Homo sapiens, UniProt P54750); experiment: Phosphodiesterase enzyme screening assay, PDE1A
T2 construct: purchased Reaction Biology Corporation, Malvern, Pa
T2 sequence (P54750 whole entry): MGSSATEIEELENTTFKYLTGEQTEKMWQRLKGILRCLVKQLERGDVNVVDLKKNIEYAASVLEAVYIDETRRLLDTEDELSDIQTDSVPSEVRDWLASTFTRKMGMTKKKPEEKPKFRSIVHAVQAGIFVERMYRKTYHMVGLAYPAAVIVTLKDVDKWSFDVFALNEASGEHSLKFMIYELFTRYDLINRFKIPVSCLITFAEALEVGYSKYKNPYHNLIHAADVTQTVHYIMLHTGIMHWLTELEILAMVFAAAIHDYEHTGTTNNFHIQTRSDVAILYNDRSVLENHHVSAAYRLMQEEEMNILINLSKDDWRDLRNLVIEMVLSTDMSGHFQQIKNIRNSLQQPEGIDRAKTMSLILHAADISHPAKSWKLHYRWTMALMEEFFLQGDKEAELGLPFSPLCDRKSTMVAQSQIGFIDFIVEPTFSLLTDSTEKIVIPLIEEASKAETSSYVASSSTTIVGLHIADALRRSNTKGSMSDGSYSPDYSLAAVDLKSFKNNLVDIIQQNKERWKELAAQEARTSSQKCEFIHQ
Procedure, shortened: as §1

PDE1B = target: T3, PDE1B (Homo sapiens, UniProt Q01064); experiment: Phosphodiesterase enzyme screening assay, PDE1B
T3 construct: purchased Reaction Biology Corporation, Malvern, Pa
T3 sequence (Q01064 whole entry): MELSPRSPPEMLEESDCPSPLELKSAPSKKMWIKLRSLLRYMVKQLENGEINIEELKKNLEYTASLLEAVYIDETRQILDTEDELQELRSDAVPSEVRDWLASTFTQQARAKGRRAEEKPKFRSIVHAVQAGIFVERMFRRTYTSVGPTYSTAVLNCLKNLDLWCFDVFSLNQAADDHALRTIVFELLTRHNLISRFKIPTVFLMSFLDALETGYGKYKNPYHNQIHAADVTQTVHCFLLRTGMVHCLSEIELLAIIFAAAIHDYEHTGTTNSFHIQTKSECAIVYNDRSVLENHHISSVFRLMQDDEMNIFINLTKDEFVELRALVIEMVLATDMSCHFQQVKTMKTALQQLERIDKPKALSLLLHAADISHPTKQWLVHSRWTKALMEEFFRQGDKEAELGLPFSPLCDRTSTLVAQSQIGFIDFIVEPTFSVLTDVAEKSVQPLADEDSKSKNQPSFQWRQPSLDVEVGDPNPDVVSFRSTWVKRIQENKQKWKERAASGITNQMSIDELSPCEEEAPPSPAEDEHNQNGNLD
Procedure, shortened: as §1

[1] = IC50 band, 4.0 μM cGMP substrate, 1 hour at R.T.
[2] = ratio of IC50 values PDE1A vs PDE9A2, value greater than 1 indicates greater selectivity for PDE9A2
[3] = ratio of IC50 values PDE1B vs PDE9A2, value greater than 1 indicates greater selectivity for PDE9A2
[4] = Table 1, 10 concentrations, 4.0 μM cGMP substrate, 1 hour at R.T., read-out: Band (PDE9A2 IC50)
[5] = Table 1, ratio of IC50 values, value greater than 1 indicates greater selectivity for PDE9A2
[6] = ratio of IC50 values, PDE1A versus PDE9A2, value greater than 1 indicates greater selectivity for PDE9A2
[7] = ratio of IC50 values, PDE1B versus PDE9A2, value greater than 1 indicates greater selectivity for PDE9A2
[8] = ratio of IC50 values, value greater than 1 indicates greater selectivity for PDE9A2
[9] = Table 2, 10 concentrations, 4.0 μM cGMP substrate, 1 hour at R.T., read-out: Band (PDE9A2 IC50)
[10] = Table 2, ratio of IC50 values, value greater than 1 indicates greater selectivity for PDE9A2
[11] = Table 3, 4.0 μM cGMP substrate, 1 hour at R.T., read-out: Band (PDE9A2 IC50)
[12] = ratio of IC50 values, PDE1A versus PDE9A2, value greater than 1 = greater selectivity for PDE9A2
[13] = ratio of IC50 values, PDE1B versus PDE9A2, value greater than 1 = greater selectivity for PDE9A2
[14] = 4.0 μM cGMP substrate, 1 hour at R.T., read-out: Band (PDE9A2 IC50)
[15] = ratio of IC50 values PDE1A / PDE9A2, value greater than 1 = greater selectivity for PDE9A2
[16] = ratio of IC50 values PDE1B / PDE9A2, value greater than 1 = greater selectivity for PDE9A2

T1 sequence (O76083 1-533 isoform O76083-2): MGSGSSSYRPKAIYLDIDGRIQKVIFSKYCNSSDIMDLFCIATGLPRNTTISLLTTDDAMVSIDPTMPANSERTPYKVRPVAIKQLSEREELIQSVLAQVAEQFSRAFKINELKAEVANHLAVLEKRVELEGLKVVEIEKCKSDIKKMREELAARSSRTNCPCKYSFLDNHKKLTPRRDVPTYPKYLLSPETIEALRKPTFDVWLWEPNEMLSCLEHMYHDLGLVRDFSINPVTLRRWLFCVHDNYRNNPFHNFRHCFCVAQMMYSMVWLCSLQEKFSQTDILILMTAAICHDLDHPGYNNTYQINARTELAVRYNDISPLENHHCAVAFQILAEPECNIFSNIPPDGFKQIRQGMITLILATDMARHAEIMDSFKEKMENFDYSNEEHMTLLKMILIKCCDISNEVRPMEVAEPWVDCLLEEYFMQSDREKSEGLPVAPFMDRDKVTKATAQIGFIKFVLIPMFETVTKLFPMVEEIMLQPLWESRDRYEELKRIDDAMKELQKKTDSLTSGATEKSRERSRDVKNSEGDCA

In the case of `Cc1ccc(F)cc1-c1ncc2c(=O)[nH]c(C3CN(Cc4nc5ccccc5[nH]4)CC3C)nn12` (single isomer, unassigned; (+)) [(+)-2-((3,4-trans)-1-((1H-benzo[d]imidazol-2-yl)methyl)-4-methylpyrrolidin-3-yl)-7-(5-fluoro-2-methylphenyl)imidazo[5,1-f][1,2,4]triazin-4(3H)-one], the IC50 (PDE9A2; [1]) is reported as < 1 µM, the “PDE1A selectivity (versus PDE9A2)” value (PDE1A; [2]) is reported as 89 and the “PDE1B selectivity (versus PDE9A2)” value (PDE1B; [3]) is reported as 130.

`CC1CN(Cc2cccc(N3CCCC3)c2)CC1c1nn2c(C3CCOCC3)ncc2c(=O)[nH]1` (single isomer, unassigned; (+)) [(+)-2-((3,4-trans)-4-methyl-1-(3-(pyrrolidin-1-yl)benzyl)pyrrolidin-3-yl)-7-(tetrahydro-2H-pyran-4-yl)imidazo[5,1-f][1,2,4]triazin-4(3H)-one] was tested, and the IC50 (PDE9A2; [4]) was < 1 µM, the “PDE1A selectivity (versus PDE9A2)” value (PDE1A; [5]) was 700 and the “PDE1B selectivity (versus PDE9A2)” value (PDE1B; [5]) was 1190.

In the case of `CC1CN(Cc2ccc3cccnc3c2)CC1c1nn2c(C3CCOCC3)ncc2c(=O)[nH]1` (single isomer, unassigned; (-)) [(−)-2-((3,4-trans)-4-methyl-1-(quinolin-7-ylmethyl)pyrrolidin-3-yl)-7-(tetrahydro-2H-pyran-4-yl)imidazo[5,1-f][1,2,4]triazin-4(3H)-one], the IC50 (PDE9A2; [4]) is reported as < 1 µM, the “PDE1A selectivity (versus PDE9A2)” value (PDE1A; [5]) is reported as 334 and the “PDE1B selectivity (versus PDE9A2)” value (PDE1B; [5]) is reported as 2610.

For `Cc1ccncc1-c1ncc2c(=O)[nH]c(C3CN(Cc4nc5ccccn5n4)CC3C)nn12` (single isomer, unassigned; (+)) [(+)-2-((3,4-trans)-1-([1,2,4]triazolo[1,5-a]pyridin-2-ylmethyl)-4-methylpyrrolidin-3-yl)-7-(4-methylpyridin-3-yl)imidazo[5,1-f][1,2,4]triazin-4(3H)-one], the IC50 (PDE9A2; read-out: Band (PDE9A2 IC50)) was < 1 µM, the “PDE1A selectivity (versus PDE9A2)” value (PDE1A; [6]) was 56 and the “PDE1B selectivity (versus PDE9A2)” value (PDE1B; [7]) was 115.

`Cc1nc(CN2CC(C)C(c3nn4c(C5CCOCC5)ncc4c(=O)[nH]3)C2)no1` (single isomer, unassigned; (+)) [(+)-2-((3,4-trans)-4-methyl-1-((5-methyl-1,2,4-oxadiazol-3-yl)methyl)pyrrolidin-3-yl)-7-(tetrahydro-2H-pyran-4-yl)imidazo[5,1-f][1,2,4]triazin-4(3H)-one] was tested, and the IC50 (PDE9A2; read-out: Band (PDE9A2 IC50)) was < 1 µM, the “PDE1A selectivity (versus PDE9A2)” value (PDE1A; [8]) was 20 and the “PDE1B selectivity (versus PDE9A2)” value (PDE1B; [8]) was 21.

In the case of `CC1CN(Cc2nccc(C3CC3)n2)CC1c1nn2c(C3CCOCC3)ncc2c(=O)[nH]1` (single isomer, unassigned; (+)) [(+)-2-((3,4-trans)-1-((4-cyclopropylpyrimidin-2-yl)methyl)-4-methylpyrrolidin-3-yl)-7-(tetrahydro-2H-pyran-4-yl)imidazo[5,1-f][1,2,4]triazin-4(3H)-one], the IC50 (PDE9A2; [9]) is reported as < 1 µM, the “PDE1A selectivity (versus PDE9A2)” value (PDE1A; [10]) is reported as 229 and the “PDE1B selectivity (versus PDE9A2)” value (PDE1B; [10]) is reported as 403.

For `CC1CN(Cc2ccc(-c3ccncc3)cc2)CC1c1nn2c(C3CCOCC3)ncc2c(=O)[nH]1` (single isomer, unassigned; (-)) [(−)-2-((3,4-trans)-4-methyl-1-(4-(pyridin-4-yl)benzyl)pyrrolidin-3-yl)-7-(tetrahydro-2H-pyran-4-yl)imidazo[5,1-f][1,2,4]triazin-4(3H)-one], the IC50 (PDE9A2; [11]) was < 1 µM, the “PDE1A selectivity (versus PDE9A2)” value (PDE1A; [12]) was 679 and the “PDE1B selectivity (versus PDE9A2)” value (PDE1B; [13]) was 1560.

In the case of `Cc1ccccc1CN1CC(C)C(c2nn3c(C4CCOCC4)ncc3c(=O)[nH]2)C1` (single isomer, unassigned; (+)) [(+)-2-((3,4-trans)-4-methyl-1-(2-methylbenzyl)pyrrolidin-3-yl)-7-(tetrahydro-2H-pyran-4-yl)imidazo[5,1-f][1,2,4]triazin-4(3H)-one], the IC50 (PDE9A2; [4]) is reported as < 1 µM, the “PDE1A selectivity (versus PDE9A2)” value (PDE1A; [5]) is reported as 249 and the “PDE1B selectivity (versus PDE9A2)” value (PDE1B; [5]) is reported as 105.

With `CC1CN(Cc2nccn2C)CC1c1nn2c(C3CCOCC3)ncc2c(=O)[nH]1` (single isomer, unassigned; (+)) [(+)-2-((3,4-trans)-4-methyl-1-((1-methyl-1H-imidazol-2-yl)methyl)pyrrolidin-3-yl)-7-(tetrahydro-2H-pyran-4-yl)imidazo[5,1-f][1,2,4]triazin-4(3H)-one] the IC50 (PDE9A2; read-out: Band (PDE9A2 IC50)) was < 1 µM, the “PDE1A selectivity (versus PDE9A2)” value (PDE1A; [8]) was 197 and the “PDE1B selectivity (versus PDE9A2)” value (PDE1B; [8]) was 107.

For `Cc1cccc(CN2CC(C)C(c3nn4c(C5CCOCC5)ncc4c(=O)[nH]3)C2)n1` (single isomer, unassigned; (+)) [(+)-2-((3,4-trans)-4-methyl-1-((6-methylpyridin-2-yl)methyl)pyrrolidin-3-yl)-7-(tetrahydro-2H-pyran-4-yl)imidazo[5,1-f][1,2,4]triazin-4(3H)-one], the IC50 (PDE9A2; [14]) was < 1 µM, the “PDE1A selectivity (versus PDE9A2)” value (PDE1A; [15]) was 780 and the “PDE1B selectivity (versus PDE9A2)” value (PDE1B; [16]) was 1005.

In the case of `CC1CN(Cc2cc(Cl)cc(C(F)(F)F)c2)CC1c1nn2c(C3CCOCC3)ncc2c(=O)[nH]1` (single isomer, unassigned; (+)) [(+)-2-((3,4-trans)-1-(3-chloro-5-(trifluoromethyl)benzyl)-4-methylpyrrolidin-3-yl)-7-(tetrahydro-2H-pyran-4-yl)imidazo[5,1-f][1,2,4]triazin-4(3H)-one], the IC50 (PDE9A2; [14]) is reported as < 1 µM, the “PDE1A selectivity (versus PDE9A2)” value (PDE1A; [15]) is reported as 236 and the “PDE1B selectivity (versus PDE9A2)” value (PDE1B; [16]) is reported as 105.

`CC1CN(C)CC1c1nn2c(C3CCOCC3)ncc2c(=O)[nH]1` (single isomer, unassigned; (+)) [(+)-((3,4-trans)-1,4-dimethylpyrrolidin-3-yl)-7-(tetrahydro-2H-pyran-4-yl)imidazo[5,1-f][1,2,4]triazin-4(3H)-one] was tested, and the IC50 (PDE9A2; [4]) was < 1 µM, the “PDE1A selectivity (versus PDE9A2)” value (PDE1A; [5]) was 75 and the “PDE1B selectivity (versus PDE9A2)” value (PDE1B; [5]) was 121.

In the case of `Cc1nccc(CN2CC(C)C(c3nn4c(C5CCOCC5)ncc4c(=O)[nH]3)C2)n1` (single isomer, unassigned; (+)) [(+)-2-((3,4-trans)-4-methyl-1-((2-methylpyrimidin-4-yl)methyl)pyrrolidin-3-yl)-7-(tetrahydro-2H-pyran-4-yl)imidazo[5,1-f][1,2,4]triazin-4(3H)-one], the IC50 (PDE9A2; [4]) is reported as < 1 µM, the “PDE1A selectivity (versus PDE9A2)” value (PDE1A; [5]) is reported as 184 and the “PDE1B selectivity (versus PDE9A2)” value (PDE1B; [5]) is reported as 400.

With `CC1CN(Cc2cn3ncccc3n2)CC1c1nn2c(C3CCOCC3)ncc2c(=O)[nH]1` (single isomer, unassigned; (-)) [(−)-2-((3,4-trans)-1-(imidazo[1,2-b]pyridazin-2-ylmethyl)-4-methylpyrrolidin-3-yl)-7-(tetrahydro-2H-pyran-4-yl)imidazo[5,1-f][1,2,4]triazin-4(3H)-one] the IC50 (PDE9A2; [4]) was < 1 µM, the “PDE1A selectivity (versus PDE9A2)” value (PDE1A; [5]) was 8 and the “PDE1B selectivity (versus PDE9A2)” value (PDE1B; [5]) was 12.

`CC1CN(Cc2cccnc2)CC1c1nn2c(C3CCC(F)(F)CC3)ncc2c(=O)[nH]1` (single isomer, unassigned; (+)) [(+)-7-(4,4-difluorocyclohexyl)-2-((3,4-trans)-4-methyl-1-(pyridin-3-ylmethyl)pyrrolidin-3-yl)imidazo[5,1-f][1,2,4]triazin-4(3H)-one] was tested, and the IC50 (PDE9A2; [1]) was < 1 µM, the “PDE1A selectivity (versus PDE9A2)” value (PDE1A; [2]) was 181 and the “PDE1B selectivity (versus PDE9A2)” value (PDE1B; [3]) was 409.

With `Cc1ccccc1-c1ncc2c(=O)[nH]c(C3CN(Cc4ccccn4)CC3C)nn12` (single isomer, unassigned; (+)) [(+)-2-((3,4-trans)-4-methyl-1-(pyridin-2-ylmethyl)pyrrolidin-3-yl)-7-(o-tolyl)imidazo[5,1-f][1,2,4]triazin-4(3H)-one] the IC50 (PDE9A2; read-out: Band (PDE9A2 IC50)) was < 1 µM, the “PDE1A selectivity (versus PDE9A2)” value (PDE1A; [6]) was 73 and the “PDE1B selectivity (versus PDE9A2)” value (PDE1B; [7]) was 148.

With `CC1CN(Cc2ncon2)CC1c1nn2c(C3CCOCC3)ncc2c(=O)[nH]1` (single isomer, unassigned; (+)) [(+)-2-((3,4-trans)-1-((1,2,4-oxadiazol-3-yl)methyl)-4-methylpyrrolidin-3-yl)-7-(tetrahydro-2H-pyran-4-yl)imidazo[5,1-f][1,2,4]triazin-4(3H)-one] the IC50 (PDE9A2; read-out: Band (PDE9A2 IC50)) was < 1 µM, the “PDE1A selectivity (versus PDE9A2)” value (PDE1A; [8]) was 35 and the “PDE1B selectivity (versus PDE9A2)” value (PDE1B; [8]) was 63.

`COc1cc(CN2CC(C)C(c3nn4c(C5CCOCC5)ncc4c(=O)[nH]3)C2)ccn1` (single isomer, unassigned; (+)) [(+)-2-((3,4-trans)-1-((2-methoxypyridin-4-yl)methyl)-4-methylpyrrolidin-3-yl)-7-(tetrahydro-2H-pyran-4-yl)imidazo[5,1-f][1,2,4]triazin-4(3H)-one] was tested, and the IC50 (PDE9A2; [11]) was < 1 µM, the “PDE1A selectivity (versus PDE9A2)” value (PDE1A; [12]) was 317 and the “PDE1B selectivity (versus PDE9A2)” value (PDE1B; [13]) was 607.

In the case of `CC1CN(Cc2nccc(N(C)C)n2)CC1c1nn2c(C3CCOCC3)ncc2c(=O)[nH]1` (single isomer, unassigned; (+)) [(+)-2-((3,4-trans)-1-((4-(dimethylamino)pyrimidin-2-yl)methyl)-4-methylpyrrolidin-3-yl)-7-(tetrahydro-2H-pyran-4-yl)imidazo[5,1-f][1,2,4]triazin-4(3H)-one], the IC50 (PDE9A2; [9]) is reported as < 1 µM, the “PDE1A selectivity (versus PDE9A2)” value (PDE1A; [10]) is reported as 117 and the “PDE1B selectivity (versus PDE9A2)” value (PDE1B; [10]) is reported as 177.
